# Source: patent US8697739B2, “Bicyclic acetyl-CoA carboxylase inhibitors and uses thereof” (Novartis AG, priority 2010, dated 2014)
# Biological target: T1, human acetyl-CoA carboxylase 2 (ACC2) (Homo sapiens, UniProt O00763)
# T1 construct: The cDNA encoding amino acids 144 to 2458 of human acetyl-CoA carboxylase 2; made in house; host or cells: Sf9 insect cells (baculovirus, pFastBac1)
# Assay: Acetyl-CoA carboxylase enzyme assay (malonyl-CoA formation by LC/MS/MS)
# Format: biochemical
# Conditions: recombinant human ACC2 (aa 144-2458); read-out: IC50 ACC2
# Outline: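 Malonyl-CoA formation was read by LC/MS/MS MRM against a [13C3]-malonyl-CoA internal standard, after acetic acid quench. The enzyme was baculovirus/Sf9-expressed human ACC2 residues 144–2458, given 15 minutes room-temperature compound preincubation in HEPES pH 7.5 buffer with MgCl2, citrate and DTT. Substrate solution held 50 μM acetyl-CoA, 120 μM ATP and 2 mM KHCO3.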
# T1 sequence (O00763 144-2458): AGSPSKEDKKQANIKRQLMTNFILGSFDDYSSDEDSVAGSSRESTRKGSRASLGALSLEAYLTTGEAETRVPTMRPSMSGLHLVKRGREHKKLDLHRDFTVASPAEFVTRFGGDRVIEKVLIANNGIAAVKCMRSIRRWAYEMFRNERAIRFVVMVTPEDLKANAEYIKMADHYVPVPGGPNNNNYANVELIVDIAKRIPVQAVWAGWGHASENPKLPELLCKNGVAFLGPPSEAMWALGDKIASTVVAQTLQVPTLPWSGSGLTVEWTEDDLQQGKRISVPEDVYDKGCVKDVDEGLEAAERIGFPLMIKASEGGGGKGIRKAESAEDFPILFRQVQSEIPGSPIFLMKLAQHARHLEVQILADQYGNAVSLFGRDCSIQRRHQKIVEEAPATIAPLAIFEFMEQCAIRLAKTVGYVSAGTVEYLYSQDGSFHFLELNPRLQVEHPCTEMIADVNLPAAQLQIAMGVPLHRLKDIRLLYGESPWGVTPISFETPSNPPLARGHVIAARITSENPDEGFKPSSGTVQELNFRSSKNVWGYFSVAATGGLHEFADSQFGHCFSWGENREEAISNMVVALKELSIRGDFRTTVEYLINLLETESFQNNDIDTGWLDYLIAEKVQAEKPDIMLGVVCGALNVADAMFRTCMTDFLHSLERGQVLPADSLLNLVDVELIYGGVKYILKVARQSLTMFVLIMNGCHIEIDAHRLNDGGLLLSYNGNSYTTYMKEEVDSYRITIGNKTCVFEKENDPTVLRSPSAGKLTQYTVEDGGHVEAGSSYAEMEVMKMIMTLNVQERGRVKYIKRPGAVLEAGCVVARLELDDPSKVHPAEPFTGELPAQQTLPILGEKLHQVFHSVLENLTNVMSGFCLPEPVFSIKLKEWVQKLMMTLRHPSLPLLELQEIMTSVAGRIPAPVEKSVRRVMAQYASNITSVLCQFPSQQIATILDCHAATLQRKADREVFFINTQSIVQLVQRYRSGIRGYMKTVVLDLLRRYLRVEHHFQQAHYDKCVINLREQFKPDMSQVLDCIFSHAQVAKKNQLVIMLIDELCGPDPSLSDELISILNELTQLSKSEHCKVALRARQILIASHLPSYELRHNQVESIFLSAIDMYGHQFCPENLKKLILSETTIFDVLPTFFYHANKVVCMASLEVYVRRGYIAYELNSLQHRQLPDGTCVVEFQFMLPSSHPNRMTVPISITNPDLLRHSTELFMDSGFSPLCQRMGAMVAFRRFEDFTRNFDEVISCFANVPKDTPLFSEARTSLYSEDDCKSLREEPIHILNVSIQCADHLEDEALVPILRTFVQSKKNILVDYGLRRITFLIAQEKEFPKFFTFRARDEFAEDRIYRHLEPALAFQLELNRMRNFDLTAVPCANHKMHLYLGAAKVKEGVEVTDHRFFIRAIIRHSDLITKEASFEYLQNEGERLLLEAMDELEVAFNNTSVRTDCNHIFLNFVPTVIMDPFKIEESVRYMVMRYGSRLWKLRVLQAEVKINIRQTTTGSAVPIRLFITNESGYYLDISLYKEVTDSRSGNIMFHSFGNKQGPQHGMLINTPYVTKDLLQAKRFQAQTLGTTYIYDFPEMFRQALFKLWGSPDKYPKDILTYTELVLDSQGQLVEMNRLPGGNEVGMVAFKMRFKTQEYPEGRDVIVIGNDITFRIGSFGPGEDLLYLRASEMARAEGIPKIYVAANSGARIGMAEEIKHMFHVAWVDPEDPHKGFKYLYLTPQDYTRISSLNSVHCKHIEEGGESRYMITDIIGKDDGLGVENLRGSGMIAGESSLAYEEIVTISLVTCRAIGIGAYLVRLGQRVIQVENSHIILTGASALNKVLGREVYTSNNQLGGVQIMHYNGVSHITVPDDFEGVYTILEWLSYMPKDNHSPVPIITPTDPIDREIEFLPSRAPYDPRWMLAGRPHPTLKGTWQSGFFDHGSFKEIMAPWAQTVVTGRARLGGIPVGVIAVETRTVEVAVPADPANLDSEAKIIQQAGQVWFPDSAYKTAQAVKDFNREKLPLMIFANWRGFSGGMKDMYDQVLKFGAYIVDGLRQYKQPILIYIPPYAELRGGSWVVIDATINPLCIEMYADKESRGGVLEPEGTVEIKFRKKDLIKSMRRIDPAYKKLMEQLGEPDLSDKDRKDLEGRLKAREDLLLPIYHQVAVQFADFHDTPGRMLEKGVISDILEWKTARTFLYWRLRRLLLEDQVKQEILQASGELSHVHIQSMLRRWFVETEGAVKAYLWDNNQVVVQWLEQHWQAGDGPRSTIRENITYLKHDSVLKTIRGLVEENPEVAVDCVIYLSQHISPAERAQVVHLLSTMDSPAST
row,IC50 [nM],SMILES
1,< 10,"COCc1ccc(-c2cc3ccc(S(=O)(=O)N[C@H]4CC[C@H](C(=O)N5CCOC[C@@H]5C(C)C)CC4)cc3n2C)cc1 [Example 438, N-((1S,4r)-4-((S)-3-isopropylmorpholine-4-carbonyl)cyclohexyl)-2-(4-(methoxymethyl)phenyl)-1-methyl-1H-indole-6-sulfonamide]"
2,< 10,"Cn1c(-c2ccccc2)cc2ccc(S(=O)(=O)N[C@H]3CC[C@H](C(=O)N[C@@H](c4ccccc4)C(C)(C)CO)CC3)cc21 [Example 439, (1r,4S)-N-((S)-3-hydroxy-2,2-dimethyl-1-phenylpropyl)-4-(1-methyl-2-phenyl-1H-indole-6-sulfonamido)cyclohexanecarboxamide]"
3,20,"COc1ccc(-c2cc3ccc(S(=O)(=O)N[C@H]4CC[C@H](C(=O)N5CCOC[C@@H]5C)CC4)cc3n2C)cc1 [Example 440, 2-(4-methoxyphenyl)-1-methyl-N-((1S,4r)-4-((S)-3-methylmorpholine-4-carbonyl)cyclohexyl)-1H-indole-6-sulfonamide]"
4,< 10,"COc1ccc(-c2cc3ccc(S(=O)(=O)N[C@H]4CC[C@H](C(=O)N5CCOC[C@@H]5C(C)C)CC4)cc3n2C)cc1 [Example 441, N-((1S,4r)-4-((S)-3-isopropylmorpholine-4-carbonyl)cyclohexyl)-2-(4-methoxyphenyl)-1-methyl-1H-indole-6-sulfonamide]"
5,40,"Cn1c(-c2ccccc2)cc2ccc(S(=O)(=O)N[C@H]3CC[C@H](C(=O)N4CCOC(C)(C)C4)CC3)cc21 [Example 442, N-((1r,4r)-4-(2,2-dimethylmorpholine-4-carbonyl)cyclohexyl)-1-methyl-2-phenyl-1H-indole-6-sulfonamide]"
6,30,"Cn1c(-c2ccccc2)cc2ccc(S(=O)(=O)N[C@H]3CC[C@H](C(=O)N4CCC[C@@H]4C(C)(C)O)CC3)cc21 [Example 443, N-((1R,4r)-4-((R)-2-(2-hydroxypropan-2-yl)pyrrolidine-1-carbonyl)cyclohexyl)-1-methyl-2-phenyl-1H-indole-6-sulfonamide]"
7,20,"COCCc1ccc(-c2cc3ccc(S(=O)(=O)N[C@H]4CC[C@H](C(=O)N5CCOC[C@@H]5C)CC4)cc3n2C)cc1 [Example 444, 2-(4-(2-methoxyethyl)phenyl)-1-methyl-N-((1S,4r)-4-((S)-3-methylmorpholine-4-carbonyl)cyclohexyl)-1H-indole-6-sulfonamide]"
8,15,"COc1ccc(-c2cc3ccc(S(=O)(=O)N[C@H]4CC[C@H](C(=O)N[C@@H](CO)C5CC5)CC4)cc3n2C)cc1 [Example 445, (1r,4R)-N-((R)-1-cyclopropyl-2-hydroxyethyl)-4-(2-(4-methoxyphenyl)-1-methyl-1H-indole-6-sulfonamido)cyclohexanecarboxamide]"
9,365,"Cn1c(C2CC2)cc2ccc(S(=O)(=O)N[C@H]3CC[C@H](C(=O)N[C@@H](CO)C4CC4)CC3)cc21 [Example 446, (1r,4R)-4-(2-cyclopropyl-1-methyl-1H-indole-6-sulfonamido)-N-((R)-1-cyclopropyl-2-hydroxyethyl)cyclohexanecarboxamide]"
10,25,"COCCOc1ccc(-c2cc3ccc(S(=O)(=O)N[C@H]4CC[C@H](C(=O)N5CCOC[C@@H]5C(C)C)CC4)cc3n2C)cc1 [Example 447, N-((1S,4r)-4-((S)-3-isopropylmorpholine-4-carbonyl)cyclohexyl)-2-(4-(2-methoxyethoxy)phenyl)-1-methyl-1H-indole-6-sulfonamide]"
11,65,"COCCOc1ccc(-c2cc3ccc(S(=O)(=O)N[C@H]4CC[C@H](C(=O)N5CCOC[C@@H]5C)CC4)cc3n2C)cc1 [Example 448, 2-(4-(2-methoxyethoxy)phenyl)-1-methyl-N-((1S,4r)-4-((S)-3-methylmorpholine-4-carbonyl)cyclohexyl)-1H-indole-6-sulfonamide]"
12,75,"COCCOc1ccc(-c2cc3ccc(S(=O)(=O)N[C@H]4CC[C@H](C(=O)N[C@H](CO)C5CC5)CC4)cc3n2C)cc1 [Example 449, (1r,4S)-N-((S)-1-cyclopropyl-2-hydroxyethyl)-4-(2-(4-(2-methoxyethoxy)phenyl)-1-methyl-1H-indole-6-sulfonamido)cyclohexanecarboxamide]"
13,130,"COCCOc1ccc(-c2cc3ccc(S(=O)(=O)N[C@H]4CC[C@H](C(=O)N5CCOC(C)(C)C5)CC4)cc3n2C)cc1 [Example 450, N-((1r,4r)-4-(2,2-dimethylmorpholine-4-carbonyl)cyclohexyl)-2-(4-(2-methoxyethoxy)phenyl)-1-methyl-1H-indole-6-sulfonamide]"
14,80,"COCCOc1ccc(-c2cc3ccc(S(=O)(=O)N[C@H]4CC[C@H](C(=O)N5CCC[C@@H]5C(C)(C)O)CC4)cc3n2C)cc1 [Example 451, N-((1R,4r)-4-((R)-2-(2-hydroxypropan-2-yl)pyrrolidine-1-carbonyl)cyclohexyl)-2-(4-(2-methoxyethoxy)phenyl)-1-methyl-1H-indole-6-sulfonamide]"
15,10,"COCCOc1ccc(-c2cc3ccc(S(=O)(=O)N[C@H]4CC[C@H](C(=O)N[C@H](C)c5ccc(F)cc5)CC4)cc3n2C)cc1 [Example 452, (1r,4R)-N-((R)-1-(4-fluorophenyl)ethyl)-4-(2-(4-(2-methoxyethoxy)phenyl)-1-methyl-1H-indole-6-sulfonamido)cyclohexanecarboxamide]"
16,165,"COCCOc1ccc(-c2cc3ccc(S(=O)(=O)N[C@H]4CC[C@H](C(=O)N[C@H](C)C(F)(F)F)CC4)cc3n2C)cc1 [Example 453, (1r,4R)-4-(2-(4-(2-methoxyethoxy)phenyl)-1-methyl-1H-indole-6-sulfonamido)-N-((R)-1,1,1-trifluoropropan-2-yl)cyclohexanecarboxamide]"
17,< 10,"COc1ccc(-c2cc3ccc(S(=O)(=O)N[C@H]4CC[C@H](C(=O)N5CCOC[C@@H]5C5CC5)CC4)cc3n2C)cc1 [Example 454, N-((1S,4r)-4-((S)-3-cyclopropylmorpholine-4-carbonyl)cyclohexyl)-2-(4-methoxyphenyl)-1-methyl-1H-indole-6-sulfonamide]"
18,< 10,"COCc1ccc(-c2cc3ccc(S(=O)(=O)N[C@H]4CC[C@H](C(=O)N5CCOC[C@@H]5C5CC5)CC4)cc3[nH]2)cc1 [Example 455, N-((1S,4r)-4-((S)-3-cyclopropylmorpholine-4-carbonyl)cyclohexyl)-2-(4-(methoxymethyl)phenyl)-1H-indole-6-sulfonamide]"
19,< 10,"COCc1ccc(-c2cc3ccc(S(=O)(=O)N[C@H]4CC[C@H](C(=O)N5CCOC[C@@H]5C5CC5)CC4)cc3n2C)cc1 [Example 456, N-((1S,4r)-4-((S)-3-cyclopropylmorpholine-4-carbonyl)cyclohexyl)-2-(4-(methoxymethyl)phenyl)-1-methyl-1H-indole-6-sulfonamide]"
20,< 10,"COCCc1ccc(-c2cc3ccc(S(=O)(=O)N[C@H]4CC[C@H](C(=O)N5CCOC[C@@H]5C5CC5)CC4)cc3n2C)cc1 [Example 457, N-((1S,4r)-4-((S)-3-cyclopropylmorpholine-4-carbonyl)cyclohexyl)-2-(4-(2-methoxyethyl)phenyl)-1-methyl-1H-indole-6-sulfonamide]"
21,< 10,"COCCc1ccc(-c2cc3ccc(S(=O)(=O)N[C@H]4CC[C@H](C(=O)N5CCOC[C@@H]5C(C)C)CC4)cc3[nH]2)cc1 [Example 460, N-((1S,4r)-4-((S)-3-isopropylmorpholine-4-carbonyl)cyclohexyl)-2-(4-(2-methoxyethyl)phenyl)-1H-indole-6-sulfonamide]"
22,< 10,"COCCc1ccc(-c2[nH]c3cc(S(=O)(=O)N[C@H]4CC[C@H](C(=O)N5CCOC[C@@H]5C(C)C)CC4)ccc3c2Cl)cc1 [Example 461, 3-chloro-N-((1S,4r)-4-((S)-3-isopropylmorpholine-4-carbonyl)cyclohexyl)-2-(4-(2-methoxyethyl)phenyl)-1H-indole-6-sulfonamide]"
23,15,"C[C@H]1COCCN1C(=O)[C@H]1CC[C@H](NS(=O)(=O)c2ccc3cc(-c4ccccc4)[nH]c3c2)CC1 [Example 462, N-((1S,4r)-4-((S)-3-methylmorpholine-4-carbonyl)cyclohexyl)-2-phenyl-1H-indole-6-sulfonamide]"
24,< 10,"CC(C)[C@H]1COCCN1C(=O)[C@H]1CC[C@H](NS(=O)(=O)c2ccc3cc(-c4ccccc4)[nH]c3c2)CC1 [Example 463, N-((1S,4r)-4-((S)-3-isopropylmorpholine-4-carbonyl)cyclohexyl)-2-phenyl-1H-indole-6-sulfonamide]"
25,30,"CC1(C)CN(C(=O)[C@H]2CC[C@H](NS(=O)(=O)c3ccc4cc(-c5ccccc5)[nH]c4c3)CC2)CCO1 [Example 464, N-((1r,4r)-4-(2,2-dimethylmorpholine-4-carbonyl)cyclohexyl)-2-phenyl-1H-indole-6-sulfonamide]"
26,20,"CC(C)(O)[C@H]1CCCN1C(=O)[C@H]1CC[C@H](NS(=O)(=O)c2ccc3cc(-c4ccccc4)[nH]c3c2)CC1 [Example 465, N-((1R,4r)-4-((R)-2-(2-hydroxypropan-2-yl)pyrrolidine-1-carbonyl)cyclohexyl)-2-phenyl-1H-indole-6-sulfonamide]"
27,10,"O=C1NCCCCC1NC(=O)[C@H]1CC[C@H](NS(=O)(=O)c2ccc3cc(-c4ccccc4)[nH]c3c2)CC1 (stereo partly shown) [Example 466, (1r,4r)-N-(2-oxoazepan-3-yl)-4-(2-phenyl-1H-indole-6-sulfonamido)cyclohexanecarboxamide]"
28,< 10,"C[C@H]1COCCN1C(=O)[C@H]1CC[C@H](NS(=O)(=O)c2ccc3c(Cl)c(-c4ccccc4)[nH]c3c2)CC1 [Example 467, 3-chloro-N-((1S,4r)-4-((S)-3-methylmorpholine-4-carbonyl)cyclohexyl)-2-phenyl-1H-indole-6-sulfonamide]"
